Test results as given in US10913952B2, “Environmental stress response transcriptional regulatory network” (Salk Institute for Biological Studies, priority 2016, dated 2021).

Experiments:
Arabidopsis thaliana = experiment: RNA-seq of ABA-treated etiolated seedlings (ABA time series); format: in vivo
Description: For ABA time series experiments, two biological replicates of 3-day-old etiolated, hydroponic-grown wild-type Col-0 seedlings were treated either by 10 μM (+/−)-ABA (MP biomedicals LLC, cat. #190673) dissolved in ethanol or ethanol-only mock control for 1, 4, 8, 12, 24, 36, and 60 hours. For DEX treatment, short term experiment was carried out by treating 3-day-old etiolated, DEX-inducible GFP-DIG1, GFP-DIG2 or GFP lines with 10 μM DEX (Sigma Aldrich, cat. #D9184); long term experiment was carried out by growing the same lines of plants containing 500 nM DEX for 10 days. Total RNA was isolated using the RNeasy Plant Mini Kit (Qiagen, CA, USA, Cat. #74903), and cDNA libraries were constructed using the TruSeq Stranded Total RNA LT Sample Prep Kit (Illumina, CA, USA, Cat. #15032611) according to manufacturers' instructions. Single-end reads were generated by the HiSeq 2500 Sequencing System (Illumina) and mapped to TAIR10 genome assembly using TopHat 2 (v2.0.8) (56). Mapped reads with mapping score equal to or larger than 10 were counted by HTSeq (v0.5.4) (57) and analyzed by edgeR (v3.6.2) (18) to identify differentially expressed genes using contrasts between ABA- and mock-treated samples at each time point and false discovery rate 0.01 or 0.05 as thresholds.
The genome-wide binding dynamics of a diverse collection of TFs was profiled using ChIP-seq to develop an in planta ABA transcriptional regulatory network. ABA-responsive transcripts were first surveyed in Arabidopsis thaliana, by generating strand-specific RNA-seq libraries from 3-day-old etiolated whole seedlings treated with either 10 uM (+/−)-ABA or an ethanol-containing mock for 1, 4, 8, 12, 24, 36 and 60 hours (FIG. 1A). Among 18,310 expressed genes, 3,061 are DE (FDR<0.01, Table 1) (18) for at least one time point. One hour of ABA treatment leads to moderate DE of many genes, and most transcriptional responses plateau after 8 hours (FIGS. 1B, 2). On the basis of gene expression data, we performed ChIP-seq experiments at four hours post ABA dose. TFs were selected based on responsiveness to ABA and published evidence, aiming to provide a good representation of TF families (FIG. 3; Tables 1 and 2). In general, highly expressed and responsive TFs were chosen in each representative TF family because in the context of an in planta experimental framework, the impact of these TFs on gene expression can be more effectively investigated compared with their weakly expressed homologs. All TF genes were epitope tagged by a recombineering-based approach (19), mostly with large DNA transformable artificial chromosomes, allowing the TFs to be expressed under their native promoters and genomic context (Table 2). The final dataset consisted of one hundred and twenty-two ChIP-seq experiments of 21 TFs from 11 families, including mock- and ABA-treated conditions.

ChIPped TFs = experiment: Western blot of epitope-tagged ChIPped TFs after ABA treatment; format: in vivo, Arabidopsis thaliana; details: H3 loading control
[1] = 10 uM ABA treatment for 4 hours

Compound: CC1=CC(=O)CC(C)(C)C1(O)/C=C/C(C)=C\C(=O)O (racemic) [ABA, abscisic acid]
- number of differentially expressed (DE) genes (Arabidopsis thaliana; 10 uM (+/-)-ABA vs ethanol mock, 1-60 hours, DE for at least one time point, FDR<0.01, among 18,310 expressed genes): 3,061
- RNA-seq evidence: ABF1 (Arabidopsis thaliana; [1]): up regulated
- RNA-seq evidence: ABF3 (Arabidopsis thaliana; [1]): up regulated
- RNA-seq evidence: ABF4 (Arabidopsis thaliana; [1]): up regulated
- RNA-seq evidence: ANAC032 (Arabidopsis thaliana; [1]): up regulated
- RNA-seq evidence: ANAC102 (Arabidopsis thaliana; [1]): up regulated
- RNA-seq evidence: DREB2A (Arabidopsis thaliana; [1]): up regulated
- RNA-seq evidence: FBH3 (Arabidopsis thaliana; [1]): up regulated
- RNA-seq evidence: GBF2 (Arabidopsis thaliana; [1]): up regulated
- RNA-seq evidence: GBF3 (Arabidopsis thaliana; [1]): up regulated
- RNA-seq evidence: HAT22 (Arabidopsis thaliana; [1]): up regulated
- RNA-seq evidence: HB6 (Arabidopsis thaliana; [1]): up regulated
- RNA-seq evidence: HSFA6A (Arabidopsis thaliana; [1]): up regulated
- RNA-seq evidence: MYB3 (Arabidopsis thaliana; [1]): up regulated
- RNA-seq evidence: MYB44 (Arabidopsis thaliana; [1]): up regulated
- RNA-seq evidence: NF-YB2 (Arabidopsis thaliana; [1]): up regulated
- RNA-seq evidence: NF-YC2 (Arabidopsis thaliana; [1]): up regulated
- RNA-seq evidence: RD26 (ANAC072) (Arabidopsis thaliana; [1]): up regulated
- RNA-seq evidence: ZAT6 (Arabidopsis thaliana; [1]): up regulated
- number of differentially expressed TFs (Arabidopsis thaliana; first 1, 4 or 8 hours of ABA treatment, edgeR FDR threshold 0.05): Two hundred and twenty-two
- protein abundance of most ChIPped TFs (ChIPped TFs): elevated
